The compounds below were run against T1, Axl (Homo sapiens, UniProt P30530) (assay: Phospho-Akt In-Cell Western Assay (inhibition of Axl activity after Axl-antibody cross-linking)). Conditions: Hela cells, phospho-Akt chemiluminescence normalized to relative cell number; compounds of formula (Ia), Table 1; read-out: IC50.
T1 construct: endogenous in cells; host or cells: HeLa cells
T1 sequence (P30530 26-894): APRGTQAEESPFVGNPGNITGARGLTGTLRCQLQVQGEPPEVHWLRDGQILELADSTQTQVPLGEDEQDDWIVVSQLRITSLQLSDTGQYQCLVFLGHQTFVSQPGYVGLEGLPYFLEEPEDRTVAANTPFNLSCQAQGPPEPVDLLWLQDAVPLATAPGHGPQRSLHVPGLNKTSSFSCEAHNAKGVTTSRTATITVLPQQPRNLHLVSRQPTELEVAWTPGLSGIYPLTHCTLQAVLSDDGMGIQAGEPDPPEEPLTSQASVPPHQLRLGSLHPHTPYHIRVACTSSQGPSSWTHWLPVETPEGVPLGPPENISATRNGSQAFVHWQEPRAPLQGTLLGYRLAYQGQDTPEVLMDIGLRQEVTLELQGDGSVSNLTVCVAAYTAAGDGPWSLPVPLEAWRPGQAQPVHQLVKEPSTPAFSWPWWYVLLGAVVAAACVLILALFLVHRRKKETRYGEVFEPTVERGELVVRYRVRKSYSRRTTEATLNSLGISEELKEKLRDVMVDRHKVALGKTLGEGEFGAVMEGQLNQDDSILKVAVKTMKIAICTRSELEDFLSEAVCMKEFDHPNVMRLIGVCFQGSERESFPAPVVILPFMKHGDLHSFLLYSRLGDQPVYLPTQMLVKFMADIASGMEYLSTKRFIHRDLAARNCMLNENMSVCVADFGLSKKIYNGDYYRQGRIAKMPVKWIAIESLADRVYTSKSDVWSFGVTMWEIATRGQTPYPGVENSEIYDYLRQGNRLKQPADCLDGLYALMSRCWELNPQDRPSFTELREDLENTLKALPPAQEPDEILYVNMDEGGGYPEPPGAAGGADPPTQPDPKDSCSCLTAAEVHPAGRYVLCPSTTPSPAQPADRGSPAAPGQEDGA
Assay type: cell-based
Procedure: The compounds of the invention were tested in the following assay for their ability to inhibit Axl activity.
Phospho-Akt In-Cell Western Assay
• Cell culture plate: 96 well assay plate (Corning 3610), white, clear bottom, tissue-culture treated. • Cells: Hela cells. • Starvation medium: For Axl stimulation: 0.5% FCS (fetal calf serum) in DMEM, plus Axl/Fc (extracellular domain of AXL fused to immunoglobulin Fc region) (R&D, 154-AL) 500 ng/mL. • For EGF (epidermal growth factor) stimulation: 0.5% FCS in DMEM (Dulbecco's modified Eagles medium). • Poly-L-Lysine 0.01% solution (the working solution): […], dilute In PBS (phosphate buffered saline). • Axl antibody cross-linking: • 1st: Mouse anti-Axl (R&D, MAB154). • 2nd: Biotin-SP-conjugated AffiniPure goat anti-mouse IgG (H+ L) (Jackson ImmunoResearch #115-065-003). • Fixing buffer: 4% formaldehyde in PBS. • Wash buffer: 0.1% TritonX-100 in PBS. • Quenching buffer: 3% H2O2, 0.1% Azide in wash buffer, Azide and hydrogen peroxide (H2O2) are added fresh. • Blocking buffer: 5% BSA in TBST (tris buffered saline plus 0.1% Tween 20). • Primary antibody: Rabbit anti-human Phospho-Akt antibody (Cell Signaling 9271): 1×250 diluted in blocking buffer. • Secondary antibody: HRP (horse radish peroxidase)-conjugated Goat anti-Rabbit secondary, stock solution: Jackson ImmunoResearch (Goat anti-Rabbit HRP, #111-035-144) 1:1 diluted in glycerol, store at −20° C. The working solution: 1×2000 dilution of stock in blocking buffer. • Chemiluminescent working solution (Pierce, 37030): SuperSignal ELISA (enzyme linked immunosorbant assay) Pico Chemiluminescent substrate. • Crystal Violet solution: Stock: 2.5% Crystal violet in methanol, filtered and kept at ambient temperature. The working solution: dilute the stock 1:20 with PBS immediately before use. • 10% SDS: working solution: 5% SDS (sodium dodecylsulfate), diluted in PBS Methods: Day 1:
A 96 well TC (tissue culture treated) plate was coated with 10 μg/mL poly-L-Lysine at 37° C. for 30 min, washed twice with PBS, and air-dried for 5 minutes before cells were added. Hela cells were seeded at 10,000 cells/well and the cells were starved in 100 μL starvation medium containing Axl/Fc for 24 hrs.
The cells were pre-treated with test compounds by adding 100 μL of 2× test compound to the starvation medium on the cells. The cells were incubated at 37° C. for 1 hr before stimulation.
The resulting mix was warmed to 37° C. 50 μL of 5×Axl 1st/2nd of antibody cluster was added to the cells and the cells were incubated at 37° C. for 5 min.
After 5 minutes stimulation, the plate was flicked to remove medium and the plate was tapped onto paper towels. Formaldehyde (4.0% in PBS, 100 μL) was added to fix the cells and the cells were incubated at ambient temperature for 20 min without shaking.
The cells were washed with a plate washer buffer to remove the formaldehyde solution. The plate was flicked to removed excess wash buffer and tapped onto paper towels. Quenching buffer (100 μL) was added to each well and the cells were incubated at ambient temperature for 20 minutes without shaking.
The cells were washed with a plate washer buffer to remove the quenching buffer. Blocking buffer (100 μL) was added and the cells were incubated at ambient temperature for at least an hour with gentle shaking.
The cells were washed with a plate washer buffer and diluted primary antibody (50 μL) was added to each well (blocking buffer was added to the negative control wells instead). The plates were incubated overnight at 4° C. with gentle shaking.
The wash buffer was removed, diluted secondary antibody (100 μL) was added, and the cells were incubated at ambient temperature for 1 hour with gentle shaking. During the incubation, the chemiluminescent reagent was brought to ambient temperature.
The secondary antibody was removed by washing the cells 1× with wash buffer, 1× with PBS by plate washer.

First: CCN(CC)C1CCN(c2ccc(Nc3nc(N)n(-c4ncnc5c4CCCc4ccccc4-5)n3)cc2F)CC1 [Compound 39, 1-(6,7-dihydro-5H-benzo[6,7]cyclohepta[1,2-d]pyrimidin-4-yl)-N^3-(3-fluoro-4-(4-(diethylamino)piperidin-1-yl)phenyl)-1H-1,2,4-triazole-3,5-diamine]
Second: CCN(CC)C1CCN(c2ccc(Nc3nc(N)n(C4=Nc5ccccc5Sc5ccccc54)n3)cc2F)CC1 [Compound 51, 1-((Z)-dibenzo[b,f][1,4]thiazepin-11-yl)-N^3-(3-fluoro-4-(4-diethylaminopiperidin-1-yl)phenyl)-1H-1,2,4-triazole-3,5-diamine]
The IC50 of the first is lower: < 1000 nM for the first, 1000 to 10000 nM for the second. The first is the more potent here.

First: CN1CCN(c2ccc(Nc3nc(N)n(-c4ncc5c(n4)-c4ccccc4CCC5)n3)cc2)CC1 [Compound 40, 1-(6,7-dihydro-5H-benzo[6,7]cyclohepta[1,2-d]pyrimidin-2-yl)-N^3-(4-(N-methylpiperazin-1-yl)phenyl)-1H-1,2,4-triazole-3,5-diamine]
Second: Nc1nc(Nc2ccc(N3CCN([C@H]4CC5CCC4C5)CC3)cc2)nn1-c1ncc2c(n1)-c1ccccc1CCC2 (stereo partly drawn) [Compound 46, 1-(6,7-dihydro-5H-benzo[6,7]cyclohepta[1,2-d]pyrimidin-2-yl)-N^3-(4-(4-(2S)-bicyclo[2.2.1]heptan-2-yl)-piperazinylphenyl)-1H-1,2,4-triazole-3,5-diamine]
The IC50 of the first is higher: 1000 to 10000 nM for the first, < 1000 nM for the second. The second is the more potent here.

CN1CCN(c2ccc(Nc3nc(N)n(-c4cc5c(nn4)-c4ccccc4N(C)CC5)n3)cc2)CC1 [Compound 41, 1-(7-methyl-6,7-dihydro-5H-benzo[2,3]azepino[4,5-c]pyridazin-3-yl)-N^3-(4-(N-methylpiperazin-1-yl)phenyl)-1H-1,2,4-triazole-3,5-diamine] and CN1CCc2cc(-n3nc(Nc4ccc(N5CCN(C6CCCCC6)CC5)c(F)c4)nc3N)nnc2-c2ccccc21 [Compound 43, 1-(7-methyl-6,7-dihydro-5H-benzo[2,3]azepino[4,5-c]pyridazin-3-yl)-N^3-(3-fluoro-4-(4-cyclohexylpiperazinyl)phenyl)-1H-1,2,4-triazole-3,5-diamine] fall in the same range of IC50: 1000 to 10000 nM for the first, 1000 to 10000 nM for the second.

First: CN1CCc2cc(-n3nc(Nc4ccc(OCCN5CCCC5)c(F)c4)nc3N)nnc2-c2ccccc21 [Compound 42, 1-(7-methyl-6,7-dihydro-5H-benzo[2,3]azepino[4,5-c]pyridazin-3-yl)-N^3-(3-fluoro-4-(2-(pyrrolidin-1-yl)ethoxy)phenyl)-1H-1,2,4-triazole-3,5-diamine]
Second: Nc1nc(Nc2ccc(OCCN3CCCC3)c(F)c2)nn1-c1cc2c(nn1)-c1ccccc1CCC2 [Compound 48, 1-(6,7-dihydro-5H-benzo[6,7]cyclohepta[1,2-c]pyridazin-3-yl)-N^3-(3-fluoro-4-(2-(pyrrolidin-1-yl)ethoxy)phenyl)-1H-1,2,4-triazole-3,5-diamine]
The IC50 of the first is lower: < 1000 nM for the first, 1000 to 10000 nM for the second.

First: Nc1nc(Nc2ccc(OCCN3CCCC3)c(F)c2)nn1-c1ncc2c(n1)-c1ccccc1CCC2 [Compound 44, 1-(6,7-dihydro-5H-benzo[6,7]cyclohepta[1,2-d]pyrimidin-2-yl)-N^3-(3-fluoro-4-(2-(pyrrolidin-1-yl)ethoxy)phenyl)-1H-1,2,4-triazole-3,5-diamine]
Second: Nc1nc(Nc2ccc(OCCN3CCCC3)c(Cl)c2)nn1-c1cc2c(nn1)-c1ccccc1CCC2 [Compound 47, 1-(6,7-dihydro-5H-benzo[6,7]cyclohepta[1,2-c]pyridazin-3-yl)-N^3-(3-chloro-4-(2-(pyrrolidin-1-yl)ethoxy)phenyl)-1H-1,2,4-triazole-3,5-diamine]
The IC50 of the first is lower: < 1000 nM for the first, 1000 to 10000 nM for the second. The first is the more potent here.

First: Nc1nc(Nc2ccc(N3CCN(C4CCCCC4)CC3)c(F)c2)nn1-c1ncc2c(n1)-c1ccccc1CCC2 [Compound 45, 1-(6,7-dihydro-5H-benzo[6,7]cyclohepta[1,2-d]pyrimidin-2-yl)-N^3-(3-fluoro-4-(4-cyclohexylpiperazinyl)phenyl)-1H-1,2,4-triazole-3,5-diamine]
Second: Nc1nc(Nc2ccc(N3CCN(C4CCCCC4)CC3)c(F)c2)nn1-c1cc2c(nn1)-c1cc(F)ccc1CCC2 [Compound 55, 1-(6,7-dihydro-5H-10-fluorobenzo[6,7]cyclo-hepta[1,2-c]pyridazin-3-yl)-N^3-(3-fluoro-4-(4-(cyclohexyl)piperazin-1-yl)phenyl)-1H-1,2,4-triazole-3,5-diamine]
The IC50 of the first is lower: < 1000 nM for the first, 10000 to 20000 nM for the second.

Nc1nc(Nc2ccc(OCCN3CCCC3)cc2)nn1C1=Nc2ccccc2Sc2ccccc21 [Compound 49, 1-((Z)-dibenzo[b,f][1,4]thiazepin-11-yl)-N^3-(4-(2-(pyrrolidin-1-yl)ethoxy)phenyl)-1H-1,2,4-triazole-3,5-diamine] and CN1CCN(c2ccc(Nc3nc(N)n(C4=Nc5ccccc5Sc5ccccc54)n3)cc2)CC1 [Compound 50, 1-((Z)-dibenzo[b,f][1,4]thiazepin-11-yl)-N^3-(4-(N-methylpiperazin-1-yl)phenyl)-1H-1,2,4-triazole-3,5-diamine] fall in the same range of IC50: 1000 to 10000 nM for the first, 1000 to 10000 nM for the second.

COc1ccc2c(c1)CCCc1cc(-n3nc(Nc4ccc(N5CCC(N6CCCC6)CC5)c(F)c4)nc3N)nnc1-2 [Compound 52, 1-(6,7-dihydro-5H-9-methoxybenzo[6,7]cyclo-hepta[1,2-c]pyridazin-3-yl)-N^3-(3-fluoro-4-(4-(pyrrolidin-1-yl)piperidin-1-yl)phenyl)-1H-1,2,4-triazole-3,5-diamine] and Nc1nc(Nc2ccc(N3CCC(N4CCCC4)CC3)c(F)c2)nn1-c1cc2c(nn1)-c1cc(F)ccc1CCC2 [Compound 53, 1-(6,7-dihydro-5H-10-fluorobenzo[6,7]cyclo-hepta[1,2-c]pyridazin-3-yl)-N^3-(3-fluoro-4-(4-(pyrrolidin-1-yl)piperidin-1-yl)phenyl)-1H-1,2,4-triazole-3,5-diamine] cannot be ordered by IC50: < 1000 nM for the first, < 1000 nM for the second.

In the case of Nc1nc(Nc2ccc(OCCN3CCCC3)c(F)c2)nn1-c1cc2c(nn1)-c1cc(F)ccc1CCC2 [Compound 54, 1-(6,7-dihydro-5H-10-fluorobenzo[6,7]cyclo-hepta[1,2-c]pyridazin-3-yl)-N^3-(3-fluoro-4-(2-(pyrrolidin-1-yl)ethoxy)phenyl)-1H-1,2,4-triazole-3,5-diamine], the IC50 is reported as < 1000 nM.

From patent US7709482B2, “Polycyclic heteroaryl substituted triazoles useful as Axl inhibitors” (Rigel Pharmaceuticals, Inc., priority 2006, dated 2010)
